Laboratory results reported in patent EP4324461A1, “(E)-N-CINAMOYLAMINOALKANOLES WITH MELANOGENESIS INHIBITORY ACTIVITY” (UNIWERSYTET JAGIELLONSKI, priority 2022, dated 2024).

Key:
[1] = target: T1, tyrosinase released from B16-F10 cells (Mus musculus, UniProt P11344); assay: Inhibition of tyrosinase activity released from B16-F10 cells; format: cell-based, murine; conditions: α-MSH induced cells, lysate, L-DOPA 0.5 mM
T1 construct: endogenous in cells; host or cells: B16-F10 murine melanoma cells, α-MSH stimulated, Triton X-100 lysate
Experimental: 50,000 cells were placed in each well of a 24-well plate (in F10-Ham medium, 1% FBS). After 24 h of culture, the tested compounds were added in fresh medium (DMEM, 1% FBS), with an additional 5 µM of α-melanocorticotropic hormone (α-MSH) in the medium to induce melanogenesis. Three wells on the plate constituted a control sample without the melanogenesis inducer (α-MSH) and without the tested compounds. After 24 hours of incubation under these conditions, the medium was removed and the cells were washed twice with PBS. 100 µL of lysis buffer composed of 90 µL of 50 mM potassium phosphate buffer, 5 µL of 0.1 mM phenylmethylsulfonyl fluoride and 5 µL of 1% Triton X-100 were added to the wells. The plates were placed at -80 °C for 30 minutes. Cell lysates were then centrifuged for 30 min (4 °C, 12,000 rpm), and then 80 µL of the supernatant was transferred to 96-well plates. […] After a 30-minute incubation, the absorbance was measured at 475 nm using a microplate reader. The percentage of inhibition of tyrosinase activity was calculated using the formula: [(AC -AT)/AC] × 100, where AC - is the absorbance of the negative control (from wells in which cells were cultured without the tested compounds), AT - is the absorbance of the sample from wells in which cells were cultured in the presence of the test compound.

[2] = test system: human reconstructed epidermis Episkin™; assay: Skin permeation in reconstructed human epidermis (Episkin); format: in vitro ADME
Experimental: The tested substance A-111 in a macrogol formulation (2% A-111 in the PEG400+PEG800 base) was applied onto the epidermis in an amount of approximately 10 mg/cm^2 ("finite dose application") using a sterile inoculation loop. The amount applied was weighed accurately. As a control, a macrogol formulation without the test substance was applied onto the epidermis. The finished experimental plate was incubated at 32 °C. At specific time intervals, aliquots of the receptor fluid (0.5 mL) were collected for the analysis and replaced with 0.5 mL of fresh receptor fluid. After 24 h of culture, all of the receptor fluid was collected. The examined tissue was washed with cotton buds soaked in methanol. The donor and receptor compartments were washed with methanol, and the epidermis was separated from the inserts and transferred to methanol. Samples were stored at -20 °C until analysis. The content (concentration) of the tested substance A-111 in the receptor fluid and in individual compartments: on the surface of the epidermis, in the epidermis, in the receptor fluid was determined using measurements in a microplate reader at 281 nm on 96-well plates transmitting ultraviolet radiation.
In order to confirm proper bioavailability, studies of the permeation of compound A-111 from a solution in PEG400 were performed in a model of reconstructed human epidermis. […] The tested substance A-111 was applied onto the epidermis in the form of a 2% PEG400 solution in an amount of 15 µL. The finished experimental plate was incubated at 32 °C. At specific time intervals, aliquots of the receptor fluid (0.5 mL) were collected for the analysis and replaced with fresh fluid. After 24 h of culture, all of the receptor fluid was collected. The examined tissue was washed with cotton buds soaked in methanol. The donor and receptor compartments were washed with methanol, and the epidermis was separated from the inserts and transferred to methanol. The content (concentration) of the tested substance A-111 in the acceptor fluid and in individual compartments: on the surface of the epidermis, in the epidermis, in the receptor fluid was determined using measurements in a microplate reader at 281nm on 96-well plates transmitting ultraviolet radiation.
Permeation studies of the A-111 compound from a cosmetic formulation were performed in a model of reconstructed human epidermis. […] 25 µL of the formulation containing the tested compound A-111 was applied to the epidermis. […] The content (concentration) of the tested substance A-111 in the receptor fluid and in individual compartments: on the surface of the epidermis, in the epidermis, in the receptor fluid was determined using measurements in a microplate reader at 281 nm on 96-well plates transmitting ultraviolet radiation.

[3] = 2% A-111 in the PEG400+PEG800 base, approx. 10 mg/cm^2, 24 h

T1 sequence (P11344 19-533): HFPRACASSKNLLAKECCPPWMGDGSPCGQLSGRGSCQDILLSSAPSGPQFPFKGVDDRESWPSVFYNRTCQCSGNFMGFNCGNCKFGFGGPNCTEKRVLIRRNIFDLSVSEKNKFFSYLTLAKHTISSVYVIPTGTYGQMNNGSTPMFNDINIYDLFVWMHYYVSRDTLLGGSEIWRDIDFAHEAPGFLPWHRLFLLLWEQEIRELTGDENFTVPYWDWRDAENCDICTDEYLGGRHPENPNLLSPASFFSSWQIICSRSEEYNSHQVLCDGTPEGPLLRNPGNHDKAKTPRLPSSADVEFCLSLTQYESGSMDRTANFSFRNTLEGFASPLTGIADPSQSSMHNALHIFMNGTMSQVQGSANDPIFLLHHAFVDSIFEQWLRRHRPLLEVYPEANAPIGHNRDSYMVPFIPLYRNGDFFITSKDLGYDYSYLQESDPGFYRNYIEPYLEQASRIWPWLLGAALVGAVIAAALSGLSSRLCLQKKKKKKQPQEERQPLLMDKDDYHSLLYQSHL

`O=C(/C=C/c1ccc(Cl)cc1)NCCCCCO` [Compound A-111, (2E)-3-(4-chlorophenyl)-N-(5-hydroxypentyl)prop-2-enamide] was tested, and the “inhibition of tyrosinase activity released from B16-F10 cells” value [1] was “inhibit the activity of tyrosinase released from B16-F10 cells”, the “accumulation in the epidermis” value [2, 3] was “no accumulation of compound A-111 in the epidermis” and the “permeation through the epidermis” value [2, 3] was “crosses the epidermal barrier and has the potential to penetrate the dermis”. The “permeation through the epidermis” value ([2]; 2% PEG400 solution, 15 µL, 24 h) was “crosses the epidermal barrier and has the potential to penetrate the dermis” and the “permeation through the epidermis” value ([2]; 25 µL of the cosmetic formulation (0.74% A-111), 24 h) was “crosses the epidermal barrier and has the potential to penetrate the dermis”.
